Measured values reported in patent publication US9580444B2, “Polycyclic pyrazolinone derivative and herbicide comprising same as effective component thereof” (priority 2013, dated 2017).

Experiments:
Test in all cases: Test Example-1: herbicidal effect by a treatment before weeds are generated under submerged conditions
Format in all cases: in vivo
Conditions in all cases: 500 g a.i/ha, pre-emergence treatment, about 15 days after treatment, score 0-5
[1] = tested on: Monochoria vaginalis (monochoria)
Method in brief: (§1)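 Paddy soil in cups was puddled, seeded with the weeds and kept flooded; compound as wettable powder or emulsifiable concentrate was diluted and applied into the water on the seeding day at a set dosage. Effect was scored about 15 days later on a 0–5 scale.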

[2] = tested on: other annual broad leaf weeds (Lindernia procumbens, Rotala indica, Elatine triandra)
Method in brief: as §1

[3] = tested on: Cyperus difformis (smallflower umbrella plant)
Method in brief: as §1

[4] = tested on: Eleocharis acicularis (needle spikerush)
Method in brief: as §1

[5] = tested on: Echinochloa oryzicola (barnyard grass)
Method in brief: as §1

[6] = tested on: Scirpus juncoides (bulrush)
Method in brief: as §1

Row | SMILES | Herbicidal effect Monochoria vaginalis [1] | Herbicidal effect Broadleaf weed [2] | Herbicidal effect Cyperus difformis [3] | Herbicidal effect Eleocharis acicularis [4] | Herbicidal effect Echinochloa oryzicola [5] | Herbicidal effect Scirpus juncoides [6]
1 | C=CCOC(=O)C=C(COc1cc(-c2c(Cl)n3n(c2=O)CCCC3)c(F)cc1Cl)OCC (mixture of isomers) [Compound 2-11] | 5 (Herbicidal effect/phytotoxicity was 90% or greater) | 5 (Herbicidal effect/phytotoxicity was 90% or greater) | 5 (Herbicidal effect/phytotoxicity was 90% or greater) | 5 (Herbicidal effect/phytotoxicity was 90% or greater) | 5 (Herbicidal effect/phytotoxicity was 90% or greater) | 5 (Herbicidal effect/phytotoxicity was 90% or greater)
2 | O=c1c(-c2cc(Oc3ccccc3O)c(Cl)cc2F)c(Cl)n2n1CCCC2 [Compound 3-1] | 5 (Herbicidal effect/phytotoxicity was 90% or greater) | 5 (Herbicidal effect/phytotoxicity was 90% or greater) | 5 (Herbicidal effect/phytotoxicity was 90% or greater) | 5 (Herbicidal effect/phytotoxicity was 90% or greater) | 5 (Herbicidal effect/phytotoxicity was 90% or greater) | 5 (Herbicidal effect/phytotoxicity was 90% or greater)
3 | C=CCOc1cc(Cl)ccc1Oc1cc(-c2c(Cl)n3n(c2=O)CCCC3)c(F)cc1Cl [Compound 3-38] | 5 (Herbicidal effect/phytotoxicity was 90% or greater) | 5 (Herbicidal effect/phytotoxicity was 90% or greater) | 5 (Herbicidal effect/phytotoxicity was 90% or greater) | 5 (Herbicidal effect/phytotoxicity was 90% or greater) | 5 (Herbicidal effect/phytotoxicity was 90% or greater) | 5 (Herbicidal effect/phytotoxicity was 90% or greater)
4 | COC(=O)COc1ccccc1Oc1cc(-c2c(Cl)n3n(c2=O)CCCC3)c(F)cc1Cl [Compound 3-16] | 5 (Herbicidal effect/phytotoxicity was 90% or greater) | 5 (Herbicidal effect/phytotoxicity was 90% or greater) | 5 (Herbicidal effect/phytotoxicity was 90% or greater) | 5 (Herbicidal effect/phytotoxicity was 90% or greater) | 5 (Herbicidal effect/phytotoxicity was 90% or greater) | 5 (Herbicidal effect/phytotoxicity was 90% or greater)
5 | CCOC(=CC(=O)OC)COc1cc(-c2c(Cl)n3n(c2=O)CCCC3)c(F)cc1Cl (mixture of isomers) [Compound 2-12] | 5 (Herbicidal effect/phytotoxicity was 90% or greater) | 5 (Herbicidal effect/phytotoxicity was 90% or greater) | 5 (Herbicidal effect/phytotoxicity was 90% or greater) | 5 (Herbicidal effect/phytotoxicity was 90% or greater) | 5 (Herbicidal effect/phytotoxicity was 90% or greater) | 5 (Herbicidal effect/phytotoxicity was 90% or greater)
6 | C=CCOC(=O)C=C(COc1ccccc1Oc1cc(-c2c(Cl)n3n(c2=O)CCCC3)c(F)cc1Cl)OCC [Compound 3-25] | 5 (Herbicidal effect/phytotoxicity was 90% or greater) | 5 (Herbicidal effect/phytotoxicity was 90% or greater) | 5 (Herbicidal effect/phytotoxicity was 90% or greater) | 5 (Herbicidal effect/phytotoxicity was 90% or greater) | 5 (Herbicidal effect/phytotoxicity was 90% or greater) | 5 (Herbicidal effect/phytotoxicity was 90% or greater)
7 | COC(=O)C(Cl)Cc1cc(-c2c(Cl)n3n(c2=O)CCCC3)c(F)cc1Cl (stereo not drawn) [Example 1-257] | 5 (Herbicidal effect/phytotoxicity was 90% or greater) | 5 (Herbicidal effect/phytotoxicity was 90% or greater) | 5 (Herbicidal effect/phytotoxicity was 90% or greater) | 5 (Herbicidal effect/phytotoxicity was 90% or greater) | 5 (Herbicidal effect/phytotoxicity was 90% or greater) | 5 (Herbicidal effect/phytotoxicity was 90% or greater)
8 | O=c1c(-c2cc(Oc3cccnc3[N+](=O)[O-])c(Cl)cc2F)c(Cl)n2n1CCCC2 [Example 1-386] | 5 (Herbicidal effect/phytotoxicity was 90% or greater) | 5 (Herbicidal effect/phytotoxicity was 90% or greater) | 5 (Herbicidal effect/phytotoxicity was 90% or greater) | 5 (Herbicidal effect/phytotoxicity was 90% or greater) | 5 (Herbicidal effect/phytotoxicity was 90% or greater) | 5 (Herbicidal effect/phytotoxicity was 90% or greater)
9 | C=C(C)COc1cc(-c2c(Cl)n3n(c2=O)CCCC3)c(F)cc1F [Example 1-109] | 5 (Herbicidal effect/phytotoxicity was 90% or greater) | 5 (Herbicidal effect/phytotoxicity was 90% or greater) | 5 (Herbicidal effect/phytotoxicity was 90% or greater) | 5 (Herbicidal effect/phytotoxicity was 90% or greater) | 5 (Herbicidal effect/phytotoxicity was 90% or greater) | 5 (Herbicidal effect/phytotoxicity was 90% or greater)
10 | CC(C)Oc1ccc(Oc2cc(-c3c(Cl)n4n(c3=O)CCCC4)c(F)cc2Cl)cc1 [Compound 3-13] | 5 (Herbicidal effect/phytotoxicity was 90% or greater) | 5 (Herbicidal effect/phytotoxicity was 90% or greater) | 5 (Herbicidal effect/phytotoxicity was 90% or greater) | 5 (Herbicidal effect/phytotoxicity was 90% or greater) | 5 (Herbicidal effect/phytotoxicity was 90% or greater) | 5 (Herbicidal effect/phytotoxicity was 90% or greater)
11 | N#CCOc1ccc(Oc2cc(-c3c(Cl)n4n(c3=O)CCCC4)c(F)cc2Cl)cc1 [Compound 3-20] | 5 (Herbicidal effect/phytotoxicity was 90% or greater) | 5 (Herbicidal effect/phytotoxicity was 90% or greater) | 5 (Herbicidal effect/phytotoxicity was 90% or greater) | 5 (Herbicidal effect/phytotoxicity was 90% or greater) | 5 (Herbicidal effect/phytotoxicity was 90% or greater) | 5 (Herbicidal effect/phytotoxicity was 90% or greater)
12 | CCCOC(=CC(=O)OCC(C)C)COc1cc(-c2c(Cl)n3n(c2=O)CCCC3)c(F)cc1Cl [Compound 2-34] | 5 (Herbicidal effect/phytotoxicity was 90% or greater) | 5 (Herbicidal effect/phytotoxicity was 90% or greater) | 5 (Herbicidal effect/phytotoxicity was 90% or greater) | 5 (Herbicidal effect/phytotoxicity was 90% or greater) | 5 (Herbicidal effect/phytotoxicity was 90% or greater) | 5 (Herbicidal effect/phytotoxicity was 90% or greater)
13 | C=CCOc1cc(F)ccc1Oc1cc(-c2c(Cl)n3n(c2=O)CCCC3)c(F)cc1Cl [Compound 3-34] | 5 (Herbicidal effect/phytotoxicity was 90% or greater) | 5 (Herbicidal effect/phytotoxicity was 90% or greater) | 5 (Herbicidal effect/phytotoxicity was 90% or greater) | 5 (Herbicidal effect/phytotoxicity was 90% or greater) | 5 (Herbicidal effect/phytotoxicity was 90% or greater) | 5 (Herbicidal effect/phytotoxicity was 90% or greater)
14 | C#CCOc1cc(Cl)ccc1Oc1cc(-c2c(Cl)n3n(c2=O)CCCC3)c(F)cc1Cl [Compound 3-39] | 5 (Herbicidal effect/phytotoxicity was 90% or greater) | 5 (Herbicidal effect/phytotoxicity was 90% or greater) | 5 (Herbicidal effect/phytotoxicity was 90% or greater) | 5 (Herbicidal effect/phytotoxicity was 90% or greater) | 5 (Herbicidal effect/phytotoxicity was 90% or greater) | 5 (Herbicidal effect/phytotoxicity was 90% or greater)
